Assay results reported in US11504428B2, “Photosensitizer and derivatives and application thereof” (DALIAN UNIVERSITY OF TECHNOLOGY, priority 2017, dated 2022).

Columns and labels:
COS-7 cells = experiment: In vitro cell selectivity test, confocal fluorescence uptake in co-cultured cells, COS-7; type: cell-based, African green monkey; settings: 1 μM, 1 h, COS-7 co-cultured with HepG2, excitation 635 nm
Procedure: (§1) Firstly, HepG2 cells and COS-7 cells are cultured together in a cell culture dish for 24 h, and then 1 μM of 1-1-biotin or 1-1 is added and further incubation for 1 h. After staining, the cells are washed using serum-free medium for three times. Then, 2 mL fresh medium is added, and corresponding fluorescence observation is performed using the laser confocal scanning microscope. The excitation wavelength is 635 nm and the fluorescence receiving channel is 655 nm-755 nm.

[1] = test system: COS-7 (African green monkey kidney cells); experiment: In vitro anticancer test (MTT cell viability), dark and 660 nm light, COS-7; type: cell-based
HepG2 cells = experiment: In vitro cell selectivity test, confocal fluorescence uptake in co-cultured cells, HepG2; type: cell-based; settings: 1 μM, 1 h
Procedure: as §1

[2] = UV absorption and fluorescence emission spectra in methanol; type: physicochemical; settings: 5 μM in methanol
Procedure: (§2) Compounds 1-1 and 1-2 synthesized from embodiment 1 above are added to 3 mL methanol solvent with a final concentration of 5 μM and their UV absorption spectra and fluorescence emission spectra are measured. […] The instruments used are AgIIlent 8453 UV spectrophotometer and AgIIlent Cary EclIIpse fluorescence spectrophotometer.
as §2, with “Benzophenoselenazine photosensitizer 2-1, 2-2,” for “Compounds 1-1 and 1-2”, “2” for “1”, “μM,” for “μM”
Compounds 1-1-IMC and 2-1-IMC synthesized from embodiment 3 above are added to 3 mL methanol solvent with a final concentration of 5 μM. The UV absorption spectra and fluorescence emission spectra are then measured. […] The instruments used are AgIIlent 8453 UV spectrophotometer and AgIIlent Cary EclIIpse fluorescence spectrophotometer.
Compounds 1-1-Biotin synthesized from embodiment 4 above is added to 3 mL methanol solvent with a final concentration of 5 μM, and then the UV absorption spectra and fluorescence emission spectra are detected. […] The instruments used are AgIIlent 8453 UV spectrophotometer and AgIIlent Cary EclIIpse fluorescence spectrophotometer.

HepG2 (hepatoma cells) = experiment: In vitro anticancer test (MTT cell viability), dark and 660 nm light, HepG2; type: cell-based
Procedure: MCF-7 (human breast) cancer cells or HepG2 (liver cancer cell) are incubated on the cell culture plate in DMEM medium supplemented with 10% FBS and 1% penicillin-streptomycin at 37° C. in a humidified, 5% CO2 atmosphere. Then, the MCF-7 cells are seeded in 96 well cell culture plate at density of 5,000 cells per well. After 24 h incubation, 100 μL of 1-1-Biotin at different concentrations (5, 2.5, 1.25, 0.625, 0.32, 0.16, 0.08, 0.04, 0.02 μM) are added into the each well, and cultured for 1 h. Then, the cell medium is replaced with 200 μL fresh medium. For the phototoxicity test, the 96-well plate is irradiated with 660 nm light source for 10 min and then cultured in the above environment for 12 hours. No light irradiation is used as control. Then 20 μL MTT solution with a concentration of 5 mg/mL is added into each well and incubated in the incubator for another 4 hours. The culture medium is then removed and 200 μL DMSO is added to each well, and the plate is gently shaken for 5 min at room temperature. Finally, the absorbance at 490 nm is measured with a Bio-Rad microplate reader and the cell viability is calculated by the following equation: Cell Viability (%)=[Σ(Ai/Ācontrol×100)]/n
Ai is the absorbance of the ith group of data (I=1, 2 . . . , n), Ācontrol is the average absorbance of the control hole of the drug, and the parallel experiment is more than 3 times.

[3] = Singlet oxygen production, DPBF absorption attenuation under 660 nm light, methylene blue as reference; type: physicochemical; settings: 5 μM in methanol
Procedure: Compounds 1-1 and 1-2 synthesized in the embodiment 1 are added to 3 mL methanol solvent with a final concentration of 5 μM. Next, 1, 3-diphenyl isobenzofuran (DPBF) is added, and adjusting the absorbance of DPBF in the solution to about 1.0. Then the ultraviolet absorption curve is measured. According to the changes of the absorbance value of DPBF at 411 nm after each irradiation (660 nm light source), the correlation curve between absorbance and time is drawn. With methylene blue (MB) as reference, the singlet oxygen yield is calculated using the following formula.
(§3) Compounds 1-1 and 1-2 synthesized in the above embodiment 2 are added to 3 mL methanol solvent with a final concentration of 5 μM. Then, the 1,3-diphenyl isobenzofuran (DPBF) is added, and the absorbance of DPBF in the solution is adjusted to about 1.0. Then the ultraviolet absorption curve is measured after each 660 nm red light irradiation. According to the changes of the absorbance value of DPBF at 411 nm, the correlation curve between absorbance and time is drawn. With methylene blue (MB) as reference, the following formula is used to calculate the oxygen yield of its singlet state.
[formula] […] The instruments used are AgIIlent 8453 UV spectrophotometer, and the light source is 300 W xenon lamp.
as §3, with “1-1-IMC” for “1-1”, “2-1-IMC” for “1-2”
as §3, with “1-1-Biotin” for “1-1 and 1-2”

SMILES	cell uptake (red fluorescence) (COS-7 cells)	phototoxicity (cytotoxicity) ([1]; COS-7, 10 minutes irradiation with 660 nm LED light source)	dark toxicity (cell survival rate) ([1]; COS-7, no light irradiation)	cell uptake / targeting (red fluorescence) (HepG2 cells; HepG2 co-cultured with COS-7, excitation 635 nm)	maximum absorption wavelength [2]	maximum emission wavelength [2]	killing effect on biotin receptor overexpressing HepG2 cells relative to COS-7 cells (HepG2 (hepatoma cells); 660 nm light, HepG2 vs COS-7 with low biotin receptor expression)	phototoxicity (cell killing) (HepG2 (hepatoma cells); HepG2, 10 minutes irradiation with 660 nm LED light source, MTT)	dark toxicity (cell survival rate) (HepG2 (hepatoma cells); HepG2, no light irradiation, MTT)	singlet oxygen yield [3]	selectivity of uptake for HepG2 over COS-7 cells (HepG2 cells; co-culture of HepG2 and COS-7)
CCN(CC)c1ccc2nc3c4ccccc4/c(=N\CCCCCCNC(=O)CCCCC4SC[C@@H]5NC(=O)N[C@H]45)cc-3sc2c1 (some centres unmarked) [1-1-Biotin]	very limited	only limited cytotoxicity	low dark toxicity	can specifically target HepG2 cells	652 nm	681 nm	significantly higher	significant HepG2 cells arr killed	low dark toxicity	0.04	–
CCN(CC)c1ccc2nc3c4ccccc4/c(=N\CCCCCCNC(=O)Cc4c(C)n(C(=O)c5ccc(Cl)cc5)c5ccc(OC)cc45)cc-3sc2c1 [1-1-IMC]	–	–	–	–	654 nm	694 nm	–	–	–	0.04	–
CCN(CC)c1ccc2nc3c4ccccc4/c(=N\CCCCCCN)cc-3sc2c1 [1-1]	–	–	–	–	655 nm	694 nm	–	–	–	0.04	does not have such selectivity
CCN(CC)c1ccc2nc3c4ccccc4/c(=N\CCCCCC(=O)O)cc-3sc2c1 [1-2]	–	–	–	–	655 nm	694 nm	–	–	–	0.04	–
CCN(CC)c1ccc2nc3c4ccccc4/c(=N\CCCCCCNC(=O)Cc4c(C)n(C(=O)c5ccc(Cl)cc5)c5ccc(OC)cc45)cc-3[se]c2c1 [2-1-IMC]	–	–	–	–	662 nm	703 nm	–	–	–	0.82	–
CCN(CC)c1ccc2nc3c4ccccc4/c(=N\CCCCCCN)cc-3[se]c2c1 [2-1]	–	–	–	–	661 nm	702 nm	–	–	–	0.78	–
CCN(CC)c1ccc2nc3c4ccccc4/c(=N\CCCCCC(=O)O)cc-3[se]c2c1 [2-2]	–	–	–	–	661 nm	702 nm	–	–	–	0.73	–
